Consider 13 compounds from patent publication US6762189B1, “5-pyrimidinecarboxamide derivatives and the pharmaceutical compositions containing said derivatives” (Dong Wha Pharm. Ind. Co., Ltd., priority 1999, dated 2004).

Data set [1] addresses T1, HBV polymerase (Hepatitis B virus genotype A2 subtype adw2, UniProt P03159).
T1 construct: made in house; host or cells: E. coli
In words: In vitro reverse transcription activity of HBV polymerase (ELISA-type, DIG/biotin nucleotides). Type of data set: biochemical. Conditions: read-out: Inhibition activity on HBV-RT (%); for inhibition at 0.01 µg/mL: 0.01 μg/ml test compound; for inhibition at 0.1 µg/mL: 0.1 μg/ml test compound; for inhibition at 1 µg/mL: 1 μg/ml test compound. Here is the method:
The following in vitro experiment was performed to determine the effect of the compounds of formula 1 on the activity of HBV polymerase during reverse transcription.
The present inventors submitted application for a patent concerning HBV polymerase genetically expressed in and separated from E. coli, the process of its preparation, and the method to measure the enzyme activities (KR 94-3918, KR 96-33998). In the present experiments HBV polymerase was used which had been expressed in E. coli as stated above.
The method used in the present invention to measure in vitro reverse transcribing activities of HBV polymerase is as follows. Basic principles are the same as for ELISA. Nucleotides with biotin or digoxigenin group attached are included as substrates and anti-DIG antibodies attached to peroxidase enzyme recognize the polymerized substrates.
To the wells coated with streptavidin, 20 μl of HBV polymerase, 20 μl of reaction mixture (10 μM each of DIG-UTP and Biotin-UTP, 46 mM Tris-HCl, 266 mM KCl, 27.5 mM MgCl2, 9.2 mM DTT substrate/primer hybrid), and 20 μl of test compound (added to 1, 0.1, and 0.01 μg/ml) were added and allowed to react a 22° C. for 15 hrs. During this reaction, HBV polymerase catalyzes DNA synthesis and digoxigenin and biotin attached to nucleotides form bonds with streptavidin coated on the bottom of wells. When the reaction was done, each well was washed with 250μl of cleaning buffer (pH 7.0) for 30 seconds, which was repeated five times to remove remaining impurities. 200 μl of anti-DIG-POD antibody was added to each well and allowed to react for 1 hr at 37° C., and the wells were washed with cleaning buffer to remove impurities. 200μl each of ABTS™, a substrate of peroxidase, was then added and allowed to react at room temperature for 30 min. Absorbance was measured at 405 nm using ELISA reader.
The percentage of reduction in HBV polymerase activities for reverse transcription was calculated using the group without test compound as a control and the results are shown in Table 3.
Background: An ELISA detects its analyte on a solid surface through an enzyme-linked reagent.

Data set [2] addresses T2, HIV reverse transcriptase (Human immunodeficiency virus type 1 group M subtype B, UniProt P04585).
T2 construct: activities of HIV reverse transcriptase; purchased Boehringer Mannheim
Briefly: In vitro HIV reverse transcriptase activity (non-radioactive reverse transcriptase assay kit). It is filed as biochemical. Here is the method:
The following in vitro experiments were done to determine the effect of compounds of formula 1 on the reduction of HIV enzyme activities in reverse transcription.
Non-radioactive reverse transcriptase assay kit (Boehringer Mannheim) was used in the measurement of in vitro transcriptase activities. 20 μl (40 ng) of HIV transcriptase and 20 μl of reaction mixture containing matrix-primer hybrid poly (A) oligo (dT) 15, DIG(digoxigenin)-dUTP, biotin-dUTP, and TTP were added to wells coated with streptavidin. Test compounds were also added at the final concentrations of 0.1 and 1 μg/ml and allowed to react at 37° C. for 1 hr. At this time, DNA is formed from RNA by the action of HIV transcriptase, forming bonds with streptavidin coated on the bottom of wells because of digoxigenin and biotin moieties attached to nucleotides.
When the reaction was completed, each well was washed with 250 μl. of cleaning buffer (pH 7.0) for 30 sec. five times to remove remaining impurities. 200 μl of anti-DIG-POD […] was added to each well, allowed to react at 37° C. for 1 hr and washed as above to remove impurities. 200 μl of ABTS™, a substrate for peroxidase, was added to each well and allowed to react at room temperature for 30min. Absorbance at 405 nm was then read for each solution using ELISA reader and used for quantitative determination of inhibitory effect on the HIV transcriptase activities. The percentage of reduction in the activities of HIV reverse transcriptase was calculated using the group without test compound as control and the results are represented in Table 5.

The subject of data set [3] is HBV. In words: Inhibition of HBV proliferation in HBV producing cell line HepG 2.2.15 (competitive PCR of culture supernatant). Conditions: Hepatitis B virus, HepG2.2.15, 168 h, HepG 2.2.15, one week, read-out: Inhibitory effect on the HBV proliferation, Inhibition activity on HBV-RT (%). Type of data set: cell-based, Hepatitis B virus. Here is the method: The following experiment was performed to determine inhibitory effects of compounds of formula on the proliferation of HBV producing cell line.
To test for antiviral effect, replication and proliferation of HBV were measured in HepG 2.2.15, a human liver cancer cell line.
The cell concentration was adjusted to 1×10^5 cells/ml and 1 ml was added to each well of a 24-well cell culture plate, which was then kept in a culture box for 3-4 days at 37° C. under 5% CO2 until cells grew sufficiently, changing culture medium everyday. When the cells matured sufficiently, the test compounds were added to the final concentrations of 0.01, 0.1, and 1 μg/ml. One week after the addition of test compounds, he culture solution was centrifuged at 5,000 rpm for 10 min. 25 μl of supernatant was transferred to a new tube and 5 μl of lysis solution [0.54N NaOH, 0.06% NP40] was added to each tube. After keeping the tube at 37° C. for 1 hr, 30 μl . of neutralizing solution [0.09NHCl, 0.1MTris-HCl, pH7.4] was added as a reaction solution for competitive polymerase chain reaction (PCR).
PCR was performed using genetic sequence of HBV core protein as a matrix. PCR reaction was carried out by adding 1 unit of Taq polymerase enzyme to 25 pmol of each primer, 250 μM dNTP, 5 μl of PCR reaction solution [0.54N NaOH, 0.06% NP40, 0.09N HCl, 0.1M Tris-HCl, pH 7.4].
DNA polymerized by PCR was electrophoresed on Agarose gel and quantitatively analyzed using an image analyzer (Gel Dcc 1000, Bio-Rad) in order to evaluate the effect of compounds of the present invention on the reduction of HBV proliferation.
3TC (lamivudine) was used as a positive control at the same concentrations as those of the test compounds. The percentage of reduction in HBV proliferation was calculated using the group without test compound as a control and the results are represented in Table 4.

T1 sequence (P03159 whole entry): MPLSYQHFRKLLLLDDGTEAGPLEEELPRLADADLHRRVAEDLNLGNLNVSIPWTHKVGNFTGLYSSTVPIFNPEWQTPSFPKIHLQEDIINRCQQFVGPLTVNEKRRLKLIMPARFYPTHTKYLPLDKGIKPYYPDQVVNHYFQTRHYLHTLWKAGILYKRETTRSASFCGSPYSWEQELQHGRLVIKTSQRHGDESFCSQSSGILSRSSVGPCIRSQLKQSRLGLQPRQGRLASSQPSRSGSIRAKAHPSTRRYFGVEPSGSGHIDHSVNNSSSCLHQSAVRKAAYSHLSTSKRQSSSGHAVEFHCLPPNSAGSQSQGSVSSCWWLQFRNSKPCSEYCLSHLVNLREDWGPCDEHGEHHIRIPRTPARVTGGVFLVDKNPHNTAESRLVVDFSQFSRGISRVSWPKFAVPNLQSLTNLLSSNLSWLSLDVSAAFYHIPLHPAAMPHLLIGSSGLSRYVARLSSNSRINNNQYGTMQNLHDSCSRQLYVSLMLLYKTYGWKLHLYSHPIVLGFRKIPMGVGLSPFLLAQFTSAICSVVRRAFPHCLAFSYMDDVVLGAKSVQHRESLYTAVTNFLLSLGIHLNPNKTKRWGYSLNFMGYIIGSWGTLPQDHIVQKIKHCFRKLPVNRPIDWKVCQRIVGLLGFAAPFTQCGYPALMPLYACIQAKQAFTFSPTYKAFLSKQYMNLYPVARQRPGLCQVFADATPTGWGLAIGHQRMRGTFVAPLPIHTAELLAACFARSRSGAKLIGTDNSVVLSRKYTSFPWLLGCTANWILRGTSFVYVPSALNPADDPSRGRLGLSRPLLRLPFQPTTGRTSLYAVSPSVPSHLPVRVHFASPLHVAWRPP

By melting point is commonly meant the temperature of the solid-liquid transition. In turn, `CSc1ncc(C(=O)N2CCN(C)CC2)c(Nc2ccc3[nH]ncc3c2)n1` [Example 31, 4-(1H-5-indazolylamino)-5-[(4-methyl-1-piperazinyl)-carbonyl]-2-methylthiopyrimidine] came in with a melting point of 153 to 155 °C. In data set [1], the inhibition at 0.01 µg/mL was found to be 43%, the inhibition at 0.1 µg/mL was found to be 58% and the inhibition at 1 µg/mL is 82%.
On to `CSc1ncc(C(=O)NCCCn2ccnc2)c(Nc2ccc3cn[nH]c3c2)n1` [Example 30, N-[3-(1H-1-imidazolyl)propyl]-4-(1H-6-indazolylamino)-2-methylthio-5-pyrimidinecarboxamide], for which the melting point is 230 to 232 °C. For the same compound, in data set [1], the inhibition at 0.01 µg/mL stood at 32%, the inhibition at 0.1 µg/mL was 58% and the inhibition at 1 µg/mL stood at 91%.
`CSc1ncc(C(=O)NCCN(C)C)c(Nc2ccc3[nH]ncc3c2)n1` [Example 17, N-[2-(dimethylamino)ethyl]-4-(1H-5-indazolylamino)-2-methylthio-5-pyrimidinecarboxamide] had a melting point of 111 to 114 °C. Besides, in data set [1], the inhibition at 0.01 µg/mL came out at 15%, the inhibition at 0.1 µg/mL is 51% and the inhibition at 1 µg/mL stood at 80%.
`CSc1ncc(C(=O)N2CCN(CCO)CC2)c(Nc2ccc3[nH]ncc3c2)n1` [Example 33, 5-[[4-(2-hydroxyethyl)-1-piperazinyl]carbonyl]-4-(1H-5-indazolylamino)-2-methylthiopyrimidine] had a melting point of 166 to 170 °C. In data set [1], the inhibition at 0.01 µg/mL stood at 11%, the inhibition at 0.1 µg/mL turned out to be 32% and the inhibition at 1 µg/mL was 53%.
Compound `CSc1ncc(C(=O)N2CCN(C)CC2)c(Nc2ccc3cn[nH]c3c2)n1` [Example 32, 4-(1H-6-indazolylamino)-5-[(4-methyl-1-piperazinyl)-carbonyl]-2-methylthiopyrimidine] gave a melting point of 102 to 106 °C. Moreover, in data set [1], the inhibition at 0.01 µg/mL was determined as 26%, the inhibition at 0.1 µg/mL amounted to 40% and the inhibition at 1 µg/mL turned out to be 62%.
With `COCCNC(=O)c1cnc(SC)nc1Nc1ccc2cn[nH]c2c1` [Example 14, 4-(1H-6-indazolylamino)-N-(2-methoxyethyl)-2-methylthio-5-pyrimidinecarboxamide], the melting point lay within 225 to 228 °C. For the same compound, in data set [1], the inhibition at 0.01 µg/mL stood at 25%, the inhibition at 0.1 µg/mL was 42% and the inhibition at 1 µg/mL stood at 60%.
The like results for `CSc1ncc(C(=O)NN2CCN(C)CC2)c(Nc2ccc3[nH]ncc3c2)n1` [Example 21, 4-(1H-5-indazolylamino)-N-(4-methyl-1-piperazinyl)-2-methylthio-5-pyrimidinecarboxamide] were, in that order, 251 to 253 °C, 40%, 54% and 78%.
As for `COC(=O)[C@@H](NC(=O)c1cnc(SC)nc1Nc1ccc2[nH]ncc2c1)[C@@H](C)O` [Example 23, 4-(1H-5-indazolylamino)-N-[(1S)-1-(methoxycarbonyl)-(2R)-2-hydroxypropyl]-2-methylthio-5-pyrimidinecarboxamide], the melting point is 227 to 232 °C. Also, in data set [1], the inhibition at 0.01 µg/mL stood at 18%, the inhibition at 0.1 µg/mL turned out to be 40% and the inhibition at 1 µg/mL amounted to 51%.
As to `CSc1ncc(C(=O)N(C)CCO)c(Nc2ccc3[nH]ncc3c2)n1` [Example 9, N-hydroxyethyl-N-methyl-4-(1H-5-indazolylamino)-2-methylthio-5-pyrimidine Carboxamide], the “Inhibitory effect on the activities of HIV reverse transcriptase, Inhibition activity on HBV-RT (%)” value in data set [2] (0.1 μg/ml test compound) came to 52%. Moreover, the “Inhibition of HIV reverse transcriptase activity” value in data set [2] (1 μg/ml test compound) is given as 84%. Also, the results for the inhibition at 0.01 µg/mL in data set [1] and in data set [3] (0.01 μg/ml) were 30% and 20%, respectively. In addition, the inhibition at 0.1 µg/mL was 54% in data set [1] and 48% in data set [3] (0.1 μg/ml). The inhibition at 1 µg/mL was determined as 75% in data set [1] and 65% in data set [3] (1 μg/ml).
`CSc1ncc(C(=O)NN2CCN(C)CC2)c(Nc2ccc3cn[nH]c3c2)n1` [Example 22, 4-(1H-6-indazolylamino)-N-(4-methyl-1-piperazinyl)2-methylthio-5-pyrimidinecarboxamide] returned a melting point of 244 to 247 °C. In addition, in data set [1], the inhibition at 0.01 µg/mL was 28%, the inhibition at 0.1 µg/mL stood at 46% and the inhibition at 1 µg/mL was determined as 72%.
Regarding `CSc1ncc(C(=O)NN2CCOCC2)c(Nc2ccc3[nH]ncc3c2)n1` (hydrate or solvate) [Example 35, 4-(1H-5-indazolylamino)-2-methylthio-N-(4-morpholinyl)-5-pyrimidinecarboxamide], the melting point is 239 to 242 °C.
`COC(=O)[C@@H](NC(=O)c1cnc(SC)nc1Nc1ccc2cn[nH]c2c1)[C@@H](C)O` [Example 24, 4-(1H-6-indazolylamino)-N-[(1S)-1-(methoxycarbonyl)-(2R)-2-hydroxypropyl]-2-methylthio-5-pyrimidinecarboxamide] showed a melting point of 226 to 228 °C. Moreover, in data set [1], the inhibition at 0.01 µg/mL worked out at 50%, the inhibition at 0.1 µg/mL was 63% and the inhibition at 1 µg/mL came to 82%.
For the compound `CSc1ncc(C(=O)N2CCN(CCO)CC2)c(Nc2ccc3cn[nH]c3c2)n1` [Example 34, 5-[[4-(2-hydroxyethyl)-1-piperazinyl]carbonyl]-4-(1H-6-indazolylamino)-2-methylthiopyrimidine], the melting point lay within 114 to 117 °C. For the same compound, in data set [1], the inhibition at 0.01 µg/mL is 15%, the inhibition at 0.1 µg/mL turned out to be 43% and the inhibition at 1 µg/mL was 59%.
